Where two headings read alike, the source gives them in different places.
Legend:
Sirt3 = molecular target: T1, Sirt3 (Homo sapiens, UniProt Q9NTG7); experiment: fluorescence-based deacetylase assay with Z-Lys(acetyl)-AMC (ZMAL) substrate; assay type: biochemical; conditions: read-out: Sirt3 inhibition IC50
T1 construct: Sirt3_118−395; made in house
T1 sequence (Q9NTG7 118-395): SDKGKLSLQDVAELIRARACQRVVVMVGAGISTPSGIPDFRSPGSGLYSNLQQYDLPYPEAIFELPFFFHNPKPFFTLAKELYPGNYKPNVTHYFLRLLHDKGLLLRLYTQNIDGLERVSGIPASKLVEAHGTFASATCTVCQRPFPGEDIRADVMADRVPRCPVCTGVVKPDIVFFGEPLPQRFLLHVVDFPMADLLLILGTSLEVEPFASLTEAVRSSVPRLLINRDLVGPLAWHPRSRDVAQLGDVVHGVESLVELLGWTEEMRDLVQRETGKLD
Protocol: The influence on deacetylase activity of three human sirtuin isoforms (Sirt1–3) was determined in a fluorescence-based assay, using Z-Lys(acetyl)-AMC (ZMAL) as a substrate. Compared to the lead structure 2a, all compounds except 2e–h show increased inhibitory activity against Sirt2 (Table 1). […] Moreover, a slight increase in selectivity for Sirt2 and Sirt3 over Sirt1 could be observed for 2c, 4a and 4b. […] Though not photoswitchable, compounds 4a and 4b were synthesized to test the influence of a rigid conformation around the C=C double bond on sirtuin inhibition. […] A recently developed fluorescence polarization (FP)-based assay enables mapping of ligand binding to this specific binding site. For 2a an interaction with the selectivity pocket was already implied in the same work. Additionally performed docking studies proposed a binding mode in which 2a mimics the nicotinamide residue of NAD^+, whereas aromatic amino acid residues of the selectivity pocket stabilize the dimethylphenol ring. As photoisomerization in stilbenes and azo dyes is accompanied by a perpendicular twist of the phenyl ring towards the former molecular plane, we assumed that this conformational change should provoke a differential binding situation at least for the dimethylphenol residue in 2a. Unfortunately, binding of 2b and c could not be localised in the vicinity of the selectivity pocket of Sirt2, so that the binding pose remains unclear.
The photoswitchable diazeno compound 11 was subjected to biological evaluation to test the effect of photoisomerization on the inhibitory activity. The enzyme assay mixture containing 11 was exposed to 5 minutes of 365 nm radiation and compared with the results of a non-irradiated measurement. […] Unfortunately, 365 nm radiation turned out to have only minor effects on the IC50 values of 11 (Table 3).
Cloning, expression and purification of recombinant proteins: Expression and purification of Sirt1_133-747, Sirt2_56−356, and Sirt3_118−395 was carried out as described previously. Identity and purity were verified by SDS-PAGE [65]. Protein concentration was determined by the Bradford assay.
Bioassay: The inhibitory effect of compounds 2a–h, 4a/b, 8a and 11 on Sirt1–3 was detected via a previously reported fluorescence based assay. The synthetic substrate Z-Lys(acetyl)-AMC (ZMAL) is deacetylated by sirtuins, followed by tryptic digestion and thereby release of […], leading to a fluorescent readout. Inhibition was determined by comparing percentage substrate conversion to a DMSO control after subtraction of the blank fluorescence signal. All compounds were tested at 100 µM, 50 µM and 10 µM, respectively. […] IC50 values were calculated with OriginPro 9.0 G using a non-linear regression to fit the dose response curve. An enzyme-free blank control and a 100% conversion control using AMC instead of ZMAL were measured as well. Inhibition measurements were performed in biological duplicates for all compounds.

[1] = isomer composition of 11 at thermal equilibrium and photostationary states, HPLC with UV–vis detection at the isosbestic points; assay type: physicochemical
From the text: The photoisomerization could be reversed by exposure to visible light, i.e. 452 nm, albeit the PSS at 452 nm still comprised about 25% of (Z)-11 as determined by HPLC analysis using UV–vis detection at the isosbestic points (Table 2). Light of 500 nm could also reverse photoisomerization, but was not as effective as 452 nm radiation. […] Switching between the two PSS could be repeated several times without any observable fatigue of the compound (Figure 5).
Photochemistry: All photoisomerization experiments were conducted under ruby light of 630 nm. Illumination was executed using a Bio-Link 254 Crosslinker from Vilber-Lourmat equipped with six Vilber-Lourmat T8-C lamps (8 W, 254 nm) or six Vilber-Lourmat T8-L lamps (8W, 365 nm), respectively. Visible light radiation of 630 nm (red), 500 nm (green) and 452 nm (blue) was derived from a Paulmann FlexLED 3D strip. All compounds were irradiated in solution, using spectrophotometric grade solvents. Photoisomerization and UV–vis spectra measurement was conducted in quartz cuvettes at room temperature. […]
of 11 (1 mM) were injected before and after 5 minutes of 365 nm or 1 minute of 452 nm irradiation. Isocratic elution with 60% MeOH and 40% water (+ 0.1% HCOOH) for 12 minutes at 1 mL∙min−1 was applied and gave complete separation of the isomers. Integration of the peak areas at the isosbestic points (λobs = 244 nm and 270 nm) gave the relative percentage of (E)-11 and (Z)-11, respectively (Figure S5).
Table S1. Isomer composition ((E)-11 / (Z)-11) at the thermal equilibrium (∆) and the PSS after 5 minutes of 365 nm and 1 minute of 452 nm radiation. […]

[2] = PSS thermal half-life of 11 by UV/Vis spectroscopy; assay type: physicochemical; conditions: PSS after 365 nm irradiation; 50 µM in 5% DMSO (v/v) in enzyme assay buffer
Protocol: PSS thermal half-life of 11
The thermal half-life of 11 after 5 minutes of 365 nm irradiation was determined by UV/Vis-spectroscopy. Therefore, a 50 µM solution of 11 in 5% DMSO (v/v) in enzyme assay buffer was prepared and an initial spectrum of the thermal equilibrium recorded. After 5 minutes of irradiation with 365 nm the increase of absorbance at the thermal equilibrium maximum ( λ = 324 nm) was followed over a period of 96 hours (Figure S6). Absorbance at 324 nm was plotted as a function of time. A non-linear regression yielded the half-live of the PSS. Due to the slow rate of thermal isomerization only a short period could be measured. Therefore the limit value was set to 0.939 as this was the absorbance at 324 nm of 11 at the thermal […]
Figure S6: 11 (50 µM) in 5% DMSO (v/v) in enzyme assay buffer after 5 minutes of 365 nm irradiation. Absorbance at 324 nm of plotted as a function of time with non-linear fit (red line).
(1 picture or pasted object on this page, not shown here)
Table S2: Non-linear fit of measured values.

NC(=O)c1cncc(N=Nc2ccc(F)cc2)c1 [Compound 11, 5-[(4-Fluorophenyl)diazenyl]nicotinamide]
melting point: 212.3 °C
IC50 (Sirt3; photostationary state (PSS) after 5 minutes of 365 nm irradiation): 29.9 ± 2.11 µM
IC50 (Sirt3; thermal equilibrium (∆), non-irradiated): 27.5 ± 3.42 µM
percentage of (Z)-11 in PSS ([1]; 365 nm irradiation): 84%
percentage of (Z)-11 in PSS ([1]; 452 nm irradiation, HPLC, UV–vis detection at isosbestic points): about 25%
Isomer composition ((E)-11 / (Z)-11) ([1]; PSS (365 nm), 5 minutes, λobs 244 nm): 17 / 83
Isomer composition ((E)-11 / (Z)-11) ([1]; PSS (365 nm), 5 minutes, λobs 270 nm): 16 / 84
Isomer composition ((E)-11 / (Z)-11) ([1]; PSS (452 nm), 1 minute, λobs 244 nm): 76 / 24
Isomer composition ((E)-11 / (Z)-11) ([1]; PSS (452 nm), 1 minute, λobs 270 nm): 74 / 26
Isomer composition ((E)-11 / (Z)-11) ([1]; thermal equilibrium (∆), λobs 244 nm): 98 / 2
Isomer composition ((E)-11 / (Z)-11) ([1]; thermal equilibrium (∆), λobs 270 nm): 99 / 1
t½ of PSS (thermal) [2]: 12.5 days
